Measured values: patent US20110003805A1, “CONCOMITANT DRUG” (TAKEDA PHARMACEUTICAL COMPANY LIMITED, priority 2008, published 2011)

Tested on: TS (thymidine) gene expression in human breast cancer cell line BT-474
Test: Measurement of expression amount of TS (thymidine) by addition of compound A, TaqMan
Type: cell-based
Settings: BT-474 cells, 100 nmol/L, two days after addition, GAPDH as internal standard (FIG. 4)
Experimental: Human breast cancer cell line BT-474 (ATCC (American Type Culture Collection) catalog No. HTB-20, Lasfargues EY, In Vitro 15:723-729(1979)), which is a passage cultured HER2 high expressing cell, was treated with trypsin and suspended in RPMI-1640 medium (GibcoInvitrogen) containing 10% bovine fetus serum (GibcoInvitrogen). The cell density of the cell suspension was measured by cell counter Sysmex CDA500, and the cell density was adjusted to 5×10^4 cell/mL using the aforementioned medium. The suspension was dispensed to each well of a 6 well multi-well culture plate (Corning) by 2 mL, and cultured overnight at 37° C. under 5% CO2. […] Using this cDNA as a template, the TS expression amount was measured using TaqMan Gene Expression Assays (Applied Biosystems). […] Ct method (Applied Biosystems) with GAPDH as an internal standard (FIG. 4).

CC(C)(O)CC(=O)NCCn1ccc2ncnc(Nc3ccc(Oc4cccc(C(F)(F)F)c4)c(Cl)c3)c21 [compound A, N-{2-[4-({3-chloro-4-[3-(trifluoromethyl)phenoxy]phenyl}amino)-5H-pyrrolo[3,2-d]pyrimidin-5-yl]ethyl}-3-hydroxy-3-methylbutaneamide]
TS expression amount: remarkably decreased
